{
  "source": "ChEMBL document CHEMBL1201862",
  "about": "“PubChem BioAssay data set” (2004)",
  "key": {"Protein Wnt-3a [1]": {"biological_target": "T1, Protein Wnt-3a (Mus musculus, UniProt P27467)", "T1 sequence (P27467 whole entry)": "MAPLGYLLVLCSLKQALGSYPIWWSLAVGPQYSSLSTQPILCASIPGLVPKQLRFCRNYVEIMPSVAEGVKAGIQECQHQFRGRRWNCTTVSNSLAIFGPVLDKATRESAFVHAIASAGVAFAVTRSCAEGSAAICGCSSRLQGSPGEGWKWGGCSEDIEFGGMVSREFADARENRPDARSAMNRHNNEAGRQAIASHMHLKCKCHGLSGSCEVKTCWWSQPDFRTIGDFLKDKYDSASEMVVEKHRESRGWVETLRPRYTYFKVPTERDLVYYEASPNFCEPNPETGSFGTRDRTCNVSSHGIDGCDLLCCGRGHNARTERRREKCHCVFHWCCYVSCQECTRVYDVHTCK", "assay": "SAR analysis of small molecule antagonists of Gli-SUFU in a Wnt3a luminescent reporter assay.", "assay_type": "functional"}, "[2]": {"biological_target": "ATP-dependent translocase ABCB1 (Homo sapiens, UniProt P08183)", "sequence (P08183 whole entry)": "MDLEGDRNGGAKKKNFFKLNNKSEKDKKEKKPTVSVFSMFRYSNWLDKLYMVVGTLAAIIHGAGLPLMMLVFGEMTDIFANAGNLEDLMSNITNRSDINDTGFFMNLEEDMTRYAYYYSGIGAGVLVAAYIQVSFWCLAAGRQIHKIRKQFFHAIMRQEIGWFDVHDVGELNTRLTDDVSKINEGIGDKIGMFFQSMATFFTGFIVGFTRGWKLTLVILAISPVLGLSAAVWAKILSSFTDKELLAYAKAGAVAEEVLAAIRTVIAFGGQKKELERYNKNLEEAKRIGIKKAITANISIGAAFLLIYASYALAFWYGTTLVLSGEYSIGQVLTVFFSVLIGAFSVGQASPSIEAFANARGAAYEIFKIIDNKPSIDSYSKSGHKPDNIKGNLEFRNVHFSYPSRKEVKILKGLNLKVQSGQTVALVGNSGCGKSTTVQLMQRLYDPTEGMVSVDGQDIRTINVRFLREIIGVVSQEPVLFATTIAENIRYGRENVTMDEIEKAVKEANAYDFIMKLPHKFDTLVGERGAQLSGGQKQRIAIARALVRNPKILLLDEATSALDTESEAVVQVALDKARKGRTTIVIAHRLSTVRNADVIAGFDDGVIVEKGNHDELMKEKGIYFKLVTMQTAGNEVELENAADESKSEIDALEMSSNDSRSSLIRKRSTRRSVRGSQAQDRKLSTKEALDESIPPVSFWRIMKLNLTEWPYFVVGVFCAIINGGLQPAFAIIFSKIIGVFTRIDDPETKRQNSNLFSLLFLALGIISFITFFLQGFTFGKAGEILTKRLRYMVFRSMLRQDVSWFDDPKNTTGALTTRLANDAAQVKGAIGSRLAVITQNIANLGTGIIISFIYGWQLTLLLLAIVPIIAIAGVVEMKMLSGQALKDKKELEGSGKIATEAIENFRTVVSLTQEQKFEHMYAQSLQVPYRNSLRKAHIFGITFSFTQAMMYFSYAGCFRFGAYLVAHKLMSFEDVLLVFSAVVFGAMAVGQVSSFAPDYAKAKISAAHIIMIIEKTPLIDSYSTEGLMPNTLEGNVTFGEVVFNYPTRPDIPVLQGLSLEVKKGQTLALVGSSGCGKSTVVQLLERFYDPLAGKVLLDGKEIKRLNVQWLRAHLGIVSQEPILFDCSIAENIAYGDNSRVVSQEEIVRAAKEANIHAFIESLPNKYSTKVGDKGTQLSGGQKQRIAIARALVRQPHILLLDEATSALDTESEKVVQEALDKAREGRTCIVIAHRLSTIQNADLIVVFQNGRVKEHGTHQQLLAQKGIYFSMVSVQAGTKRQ", "assay": "P-gp JC-1 efflux blockers potency – Jurkat-DNR cells, flow cytometry, follow-up, dose response (AID 489002)", "assay_type": "functional"}, "[3]": {"biological_target": "COUP transcription factor 2 (Homo sapiens, UniProt P24468)", "assay": "Luminescence-based cell-based high throughput dose response assay to identify inhibitors of COUP-TFII (NR2F2).", "assay_type": "functional"}, "[4]": {"biological_target": "Delta-type opioid receptor (Homo sapiens, UniProt P41143)", "sequence (P41143 whole entry)": "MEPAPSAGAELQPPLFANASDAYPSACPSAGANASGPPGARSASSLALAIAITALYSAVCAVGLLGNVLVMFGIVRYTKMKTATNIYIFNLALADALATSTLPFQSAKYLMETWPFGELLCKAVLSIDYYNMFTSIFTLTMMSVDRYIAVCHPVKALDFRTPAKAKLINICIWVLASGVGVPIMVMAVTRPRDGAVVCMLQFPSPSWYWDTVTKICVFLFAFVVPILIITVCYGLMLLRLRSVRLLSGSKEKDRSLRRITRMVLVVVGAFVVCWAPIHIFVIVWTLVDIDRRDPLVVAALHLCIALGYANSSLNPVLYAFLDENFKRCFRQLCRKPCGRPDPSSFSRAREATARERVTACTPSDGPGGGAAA", "assay": "Late-stage results from the probe development effort to identify antagonists of OPRK1: fluorescence-based cell-based dose response OPRD1 counterscreen.", "assay_type": "functional"}, "Mu-type opioid receptor": {"biological_target": "Mu-type opioid receptor (Homo sapiens, UniProt P35372)", "sequence (P35372 whole entry)": "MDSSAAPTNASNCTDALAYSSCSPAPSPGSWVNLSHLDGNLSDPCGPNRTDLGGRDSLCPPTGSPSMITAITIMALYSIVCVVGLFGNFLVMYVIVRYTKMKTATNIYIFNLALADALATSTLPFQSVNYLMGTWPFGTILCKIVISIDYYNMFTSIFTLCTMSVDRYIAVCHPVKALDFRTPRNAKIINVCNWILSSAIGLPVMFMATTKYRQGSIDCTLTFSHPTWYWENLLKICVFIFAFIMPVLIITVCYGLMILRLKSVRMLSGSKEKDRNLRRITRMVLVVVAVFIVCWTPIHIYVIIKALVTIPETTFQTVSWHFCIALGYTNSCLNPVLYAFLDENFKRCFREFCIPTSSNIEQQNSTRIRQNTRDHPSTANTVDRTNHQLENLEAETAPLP", "assay": "Late-stage results from the probe development effort to identify antagonists of OPRK1: luminescence-based cell-based dose response OPRM1 counterscreen.", "assay_type": "functional"}, "[5]": {"assay": "MITF Orthogonal Assay: SK-MEL-5 CTG Assay Measured in Cell-Based System Using Plate Reader - 2084-02_Inhibitor_Dose_DryPowder_Activity_Set7.", "assay_type": "functional"}, "[6]": {"assay": "MITF: Counter assay: A375 proliferation Measured in Cell-Based System Using Plate Reader - 2084-03_Inhibitor_Dose_DryPowder_Activity_Set8.", "assay_type": "functional", "settings": "A-375"}, "[7]": {"assay": "inhibitors of TRPM1-promoter reporter in SK-MEL-5 – cell-based, luciferase, dry powder, set 8, MITF inhibitor project, dose response (AID 624430)", "assay_type": "functional"}, "[8]": {"assay": "HEK-293T viability loss after treatment – luminescence, T-cell screen hits, cytotoxicity control for TCR NF-kB inhibitor project, dose response (AID 489026);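 also: cells exposed to compound about 14 hours before the viability readout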", "assay_type": "functional, cell-based"}, "[9]": {"biological_target": "T2, High affinity choline transporter 1 (Homo sapiens, UniProt Q9GZV3)", "T2 sequence (Q9GZV3 whole entry)": "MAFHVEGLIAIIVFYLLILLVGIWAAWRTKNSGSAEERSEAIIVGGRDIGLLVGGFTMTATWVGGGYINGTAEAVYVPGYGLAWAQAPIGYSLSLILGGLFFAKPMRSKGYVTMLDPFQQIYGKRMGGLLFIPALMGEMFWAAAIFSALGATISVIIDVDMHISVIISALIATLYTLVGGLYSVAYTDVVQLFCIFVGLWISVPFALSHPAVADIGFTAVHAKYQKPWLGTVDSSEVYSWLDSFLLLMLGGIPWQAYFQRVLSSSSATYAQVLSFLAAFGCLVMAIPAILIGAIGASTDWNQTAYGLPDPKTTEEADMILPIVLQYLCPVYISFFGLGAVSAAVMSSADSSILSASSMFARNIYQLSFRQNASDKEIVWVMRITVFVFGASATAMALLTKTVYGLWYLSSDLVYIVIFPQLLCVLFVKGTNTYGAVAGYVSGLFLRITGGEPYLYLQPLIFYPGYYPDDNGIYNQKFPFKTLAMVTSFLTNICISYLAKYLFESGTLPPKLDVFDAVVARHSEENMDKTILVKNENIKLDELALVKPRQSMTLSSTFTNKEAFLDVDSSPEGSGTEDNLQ", "assay": "human choline transporter blockers, potency – cell-based, 5-point CRC, membrane potential dye, dose response (AID 504840)", "assay_type": "functional"}, "INS1": {"test_system": "INS1", "assay": "INS-1E survival protection against cytokine death – cell-based, luminescence, retest, dose response (AID 449756);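 also: cell death triggered by IL-1 beta plus TNF-alpha plus IFN-gamma mixture; protective hits raise ATP signal compared with cytokine alone wells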", "assay_type": "functional", "settings": "Rattus norvegicus"}, "[10]": {"assay": "reduction of Shn3 3'UTR-driven luciferase in osteoblasts – cell-based, Clone20 osteoblasts, firefly luciferase, cherry-picked, dose response (AID 624132)", "assay_type": "functional"}, "[11]": {"assay": "non-specific 3'UTR reporter inhibition in Clone20-Shn3RL – cell-based, Renilla luciferase, cherry-picked, counter-screen for Shn3 inhibitor project, dose response (AID 624133)", "assay_type": "functional"}, "Protein Wnt-3a [12]": {"biological_target": "T1, Protein Wnt-3a", "assay": "antagonism of Wnt3a pathway luciferase reporter – Wnt-LIGHT cells, luminescence, selectivity assay for Gli-SUFU antagonist project, dose response (AID 651570);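 also: Wnt-LIGHT reporter cells stimulated with conditioned medium from Wnt3a-producing cells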", "assay_type": "functional", "settings": "read-out: IC50_Mean"}, "Galanin receptor type 3": {"biological_target": "Galanin receptor type 3 (Homo sapiens, UniProt O60755)", "sequence (O60755 whole entry)": "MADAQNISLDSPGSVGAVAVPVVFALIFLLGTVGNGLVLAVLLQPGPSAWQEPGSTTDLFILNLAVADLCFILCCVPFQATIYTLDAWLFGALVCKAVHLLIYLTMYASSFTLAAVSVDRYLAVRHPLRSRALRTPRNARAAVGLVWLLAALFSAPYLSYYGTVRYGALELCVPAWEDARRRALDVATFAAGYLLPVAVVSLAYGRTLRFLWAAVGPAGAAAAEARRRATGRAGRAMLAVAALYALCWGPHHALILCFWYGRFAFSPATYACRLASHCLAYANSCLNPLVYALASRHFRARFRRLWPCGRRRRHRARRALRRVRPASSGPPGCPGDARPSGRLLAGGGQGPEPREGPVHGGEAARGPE", "assay": "Fluorescence-based cell-based primary high throughput dose response assay to identify antagonists of the Galanin Receptor 3 (GalR3).", "assay_type": "functional"}, "cells": {"assay": "cells", "assay_type": "functional, cell-based", "settings": "HEK-CNG"}, "Beta-galactosidase": {"biological_target": "Beta-galactosidase (Escherichia coli, UniProt Q8VNN2)", "sequence (Q8VNN2 whole entry)": "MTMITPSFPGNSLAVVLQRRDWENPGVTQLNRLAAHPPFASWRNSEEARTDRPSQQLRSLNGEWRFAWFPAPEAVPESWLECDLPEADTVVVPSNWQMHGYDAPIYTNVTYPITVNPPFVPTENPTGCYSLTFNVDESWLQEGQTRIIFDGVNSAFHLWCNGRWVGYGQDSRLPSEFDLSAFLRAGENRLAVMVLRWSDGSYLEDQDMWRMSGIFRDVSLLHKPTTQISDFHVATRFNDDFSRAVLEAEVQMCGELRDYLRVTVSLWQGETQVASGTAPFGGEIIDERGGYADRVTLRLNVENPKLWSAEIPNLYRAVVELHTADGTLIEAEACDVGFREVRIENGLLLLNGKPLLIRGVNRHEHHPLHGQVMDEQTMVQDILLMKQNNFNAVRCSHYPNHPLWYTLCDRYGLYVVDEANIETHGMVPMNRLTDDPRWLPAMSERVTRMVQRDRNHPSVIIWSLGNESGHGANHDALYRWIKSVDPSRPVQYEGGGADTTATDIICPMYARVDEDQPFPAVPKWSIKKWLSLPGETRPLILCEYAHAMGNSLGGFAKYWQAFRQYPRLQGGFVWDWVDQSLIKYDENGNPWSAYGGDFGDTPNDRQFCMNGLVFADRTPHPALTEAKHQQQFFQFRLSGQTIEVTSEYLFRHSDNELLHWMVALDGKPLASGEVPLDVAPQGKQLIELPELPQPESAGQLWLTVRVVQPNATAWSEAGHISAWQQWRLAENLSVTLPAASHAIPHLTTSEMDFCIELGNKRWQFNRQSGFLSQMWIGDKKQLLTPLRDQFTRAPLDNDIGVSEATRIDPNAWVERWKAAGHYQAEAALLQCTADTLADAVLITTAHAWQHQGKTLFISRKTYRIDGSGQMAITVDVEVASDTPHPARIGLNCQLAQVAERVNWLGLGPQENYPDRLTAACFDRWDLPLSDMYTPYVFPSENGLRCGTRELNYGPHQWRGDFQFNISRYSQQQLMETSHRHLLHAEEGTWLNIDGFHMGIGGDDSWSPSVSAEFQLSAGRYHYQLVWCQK", "assay": "Dose response counterscreen for EBI2 assay utilizing the enzyme, b-galactosidase.", "assay_type": "functional"}, "[13]": {"biological_target": "T3, Scavenger receptor class B member 1 (Mus musculus, UniProt Q61009)", "T3 sequence (Q61009 whole entry)": "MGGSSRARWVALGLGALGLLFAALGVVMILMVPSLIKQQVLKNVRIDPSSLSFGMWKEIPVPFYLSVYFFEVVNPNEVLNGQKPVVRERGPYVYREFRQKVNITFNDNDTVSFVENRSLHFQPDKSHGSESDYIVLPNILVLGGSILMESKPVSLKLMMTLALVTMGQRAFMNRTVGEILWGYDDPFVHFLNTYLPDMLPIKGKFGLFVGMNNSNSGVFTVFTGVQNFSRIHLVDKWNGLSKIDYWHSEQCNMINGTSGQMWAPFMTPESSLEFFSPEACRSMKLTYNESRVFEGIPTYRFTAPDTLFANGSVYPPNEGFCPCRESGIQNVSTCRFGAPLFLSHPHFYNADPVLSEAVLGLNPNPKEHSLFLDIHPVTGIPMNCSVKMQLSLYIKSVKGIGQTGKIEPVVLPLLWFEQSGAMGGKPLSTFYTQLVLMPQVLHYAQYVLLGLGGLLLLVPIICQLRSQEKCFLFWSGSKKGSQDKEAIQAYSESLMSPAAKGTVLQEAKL", "assay": "mouse SR-BI DiI-HDL transfer blockers – ldlA[mSR-BI] CHO cells, fluorescence plate reader, dry powder, set 9, dose response (AID 623880)", "assay_type": "functional, cell-based"}, "[14]": {"biological_target": "T3, Scavenger receptor class B member 1", "assay": "blockers of DiI-HDL lipid transfer via SR-BI – cell-based, ldlA[mSR-BI] CHO, DiI fluorescence, dry powder, set 10, dose response (AID 624029)", "assay_type": "functional"}, "Beta-lactamase [15]": {"biological_target": "Beta-lactamase (Salmonella choleraesuis (strain SC-B67), UniProt Q5J463)", "sequence (Q5J463 whole entry)": "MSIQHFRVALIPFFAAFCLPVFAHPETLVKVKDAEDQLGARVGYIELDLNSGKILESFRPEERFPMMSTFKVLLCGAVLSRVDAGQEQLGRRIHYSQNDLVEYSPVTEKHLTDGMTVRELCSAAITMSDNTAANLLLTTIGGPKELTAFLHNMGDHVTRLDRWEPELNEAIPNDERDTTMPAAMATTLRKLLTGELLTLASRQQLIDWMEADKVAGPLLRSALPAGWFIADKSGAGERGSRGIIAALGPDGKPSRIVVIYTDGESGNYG", "assay": "Epi-absorbance-based counterscreen for selective VIM-2 inhibitors: dose response biochemical high throughput screening assay to identify inhibitors of TEM-1 serine-beta-lactamase."}, "Beta-lactamase [16]": {"biological_target": "T4, Beta-lactamase (Pseudomonas aeruginosa, UniProt Q79MP6)", "T4 sequence (Q79MP6 whole entry)": "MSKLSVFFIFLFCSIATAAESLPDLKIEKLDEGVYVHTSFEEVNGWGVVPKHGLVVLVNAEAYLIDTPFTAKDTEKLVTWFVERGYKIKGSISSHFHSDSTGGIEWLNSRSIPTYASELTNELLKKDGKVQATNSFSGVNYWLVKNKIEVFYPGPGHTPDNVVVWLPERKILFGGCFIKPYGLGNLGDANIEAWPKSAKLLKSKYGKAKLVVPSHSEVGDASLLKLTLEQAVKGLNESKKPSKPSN", "assay": "inhibition of IMP-1 beta-lactamase activity – biochemical, epi-absorbance, selectivity assay for VIM-2 inhibitor project, dose response (AID 1920)"}, "Beta Lactamase [17]": {"biological_target": "T5, Beta Lactamase (Pseudomonas aeruginosa, UniProt Q932Y6)", "T5 sequence (Q932Y6 whole entry)": "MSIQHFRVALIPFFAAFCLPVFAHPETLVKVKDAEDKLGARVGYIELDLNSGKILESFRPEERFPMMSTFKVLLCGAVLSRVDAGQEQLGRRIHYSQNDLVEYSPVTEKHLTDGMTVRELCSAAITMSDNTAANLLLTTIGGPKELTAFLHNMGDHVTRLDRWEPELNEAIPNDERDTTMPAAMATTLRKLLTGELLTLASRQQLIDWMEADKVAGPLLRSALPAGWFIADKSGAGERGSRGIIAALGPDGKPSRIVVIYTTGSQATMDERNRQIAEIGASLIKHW", "assay": "concentration-dependent VIM-2 enzyme inhibition – biochemical, epi-absorbance readout, selective inhibitors, dose response (AID 1919)"}, "Beta-lactamase [18]": {"biological_target": "T4, Beta-lactamase", "assay": "[…] counterscreen for selective VIM-2 inhibitors: dose response biochemical high throughput screening assay to identify inhibitors of IMP-1 metallo-beta-lactamase."}, "Beta Lactamase [19]": {"biological_target": "T5, Beta Lactamase", "assay": "VIM-2 CCF2 hydrolysis inhibition, assay artifact filter – biochemical, FRET readout, CCF2 substrate, artefact control for selective VIM-2 inhibitor project, dose response (AID 1926)"}},
  "note": "The source made the active and inactive calls.",
  "data": [
    {"smiles": "O=C(Nc1cc(N2CCCCC2)ncn1)c1ccccc1Cl", "values": [
      {"measurement": "IC50", "setting": "Protein Wnt-3a [1]", "value": "> 21.8 µM (inactive)"}
    ]},
    {"smiles": "CC1CN(C(=O)c2ccoc2)CCN1c1cc(-c2ccco2)nc2cc(-c3ccccc3)nn12", "note": "(centres undefined)", "values": [
      {"measurement": "EC50", "setting": "[2]", "value": 0.0002986, "unit": "µM"}
    ]},
    {"smiles": "Cc1ccc(-n2nc3c(=O)n(C(C)C(=O)NCCCc4ccccc4)nc(C)c3c2C)cc1", "note": "(centres undefined)", "values": [
      {"measurement": "IC50", "setting": "[3]", "value": "11.7 µM (inactive)"}
    ]},
    {"smiles": "COC(=O)c1cc(Br)cnc1N1CCC(NC2CCCCCC2)CC1", "values": [
      {"measurement": "IC50", "setting": "[4]", "value": "12 µM (inactive)"},
      {"measurement": "IC50", "setting": "Mu-type opioid receptor", "value": "4.2 µM (active)"}
    ]},
    {"smiles": "CN1CCN(C2=C(Nc3ccc(Cl)cc3)C(=O)c3ccccc3C2=O)CC1", "values": [
      {"measurement": "AC50", "setting": "[5]", "value": "11.6 µM (active)"},
      {"measurement": "AC50", "setting": "[6]", "value": "39.3 µM (active)"},
      {"measurement": "AC50", "setting": "[7]", "value": "17.4 µM (active)"}
    ]},
    {"smiles": "CCOC(=O)CC1CCCCN1C(=O)c1cc(COc2cccc3cnccc23)on1", "note": "(centres undefined)", "values": [
      {"measurement": "IC50", "setting": "[8]", "value": "> 80 µM (inactive)"},
      {"measurement": "IC50", "setting": "[9]", "value": "11 µM (active)"},
      {"measurement": "AC50", "setting": "INS1", "value": "5.89 µM (active)"},
      {"measurement": "AC50", "setting": "[10]", "value": "0.713 µM (active)"},
      {"measurement": "AC50", "setting": "[11]", "value": "0.67 µM (active)"},
      {"measurement": "IC50", "setting": "Protein Wnt-3a [12]", "value": "0.777 µM (active)"},
      {"measurement": "IC50", "setting": "Galanin receptor type 3", "value": "0.448 µM (active)"},
      {"measurement": "EC50", "setting": "cells", "value": "> 29.9 µM (inactive)"}
    ]},
    {"smiles": "COc1ccc(N2CCN(C(=O)c3cc(-c4ccc(F)cc4)[nH]c3C)CC2)cc1", "values": [
      {"measurement": "IC50", "setting": "Beta-galactosidase", "value": "> 80 µM (inactive)"}
    ]},
    {"smiles": "COc1ccc2c(c1)CC(C1(O)C(=O)N(C)c3ccccc31)C2=O", "note": "(centres undefined)", "values": [
      {"measurement": "AC50", "setting": "[13]", "value": "> 70 µM (inactive)"},
      {"measurement": "AC50", "setting": "[14]", "value": "> 70 µM (inactive)"}
    ]},
    {"smiles": "CC(=C/c1ccccc1)/C=N/n1c(C)nnc1S", "values": [
      {"measurement": "IC50", "setting": "Beta-lactamase [15]", "value": "> 59.6 µM (inactive)"},
      {"measurement": "IC50", "setting": "Beta-lactamase [16]", "value": "> 59.6 µM (inactive)"},
      {"measurement": "IC50", "setting": "Beta Lactamase [17]", "value": "9.98 µM (active)"},
      {"measurement": "IC50", "setting": "Beta-lactamase [18]", "value": "> 59.6 µM (inactive)"},
      {"measurement": "IC50", "setting": "Beta Lactamase [19]", "value": "2.5 µM (active)"}
    ]}
  ]
}
